Test results from paper PMC8893300, “A Dynamic Mass Redistribution Assay for the Human Sweet Taste Receptor Uncovers G-Protein Dependent Biased Ligands” (Frontiers in Pharmacology, 2022).
Where two headings read alike, the source gives them in different places. Marks after values point to notes of the source that are not given here.

What was measured:
[1] = tested on: somatostatin response in R2/R3 U2OS cells; assay: Pathway blockers on somatostatin-mediated DMR response in R2/R3 U2OS cells; conditions: for effect on the somatostatin DMR response, in words: latrunculin A 1 μM, wortmannin 200 nM, U0126 2 μM, GSK269962 2 μM
Method: (§2) Blocker stocks (250x) were prepared in DMSO or water and stored as aliquots at −20°C. Just before use, they were diluted to 2X their final concentration in assay buffer (D-PBS) at a final concentration of 0.4% DMSO. Concentrated stock solutions of the agonists somatostatin, carbachol, EGF, and sucralose were made in water or D-PBS while S1P was made up in 50% EtOH. Just before use, the agonists were diluted to 5X their final concentration in D-PBS at a final concentration of 0.4% DMSO. Final agonist concentrations were 10 μM somatostatin, 100 μM carbachol, 100–300 ng/ml EGF, 2 mM sucralose and 1 μM S1P. R2/R3 U2OS cells were plated as described above. The following day cells were washed on the Epic® with D-PBS/0.4% DMSO leaving a residual volume of 10 μl. 10 μl of D-PBS/0.4% DMSO was added to each well by hand followed by 20 μl of 2X pathway blocker. Cell plates were equilibrated on the Epic® for 90 min. After recording the baseline activity for 5 min, 10 μl of 5X agonist was added using the LHA and the DMR responses were monitored for an additional 40 min.
(§3) Cells were equilibrated at room temperature for 90 min in the Epic® reader with the indicated concentrations of pathway blockers or latrunculin A. In the case of PTx, cells were incubated over night at 37°C and on the day of the experiment PTx was replaced with buffer and cells were equilibrated in the Epic® reader as described above. A 5x-concentrated stock of agonist was then added onto the cells and DMR responses were recorded as described in Materials and Methods. […] Two to eight independent experiments were conducted with each blocker (number of independent experiments are indicated on the bar graph).

[2] = tested on: EGF response in R2/R3 U2OS cells; assay: Pathway blockers on EGF-mediated DMR response in R2/R3 U2OS cells; conditions: 100–300 ng/ml EGF; for % inhibition of the EGF DMR response: PTx overnight, wortmannin 200 nM, U0126 2 μM, GF109203x 5 μM, mean ± sd; for effect on the EGF DMR response, in words: latrunculin A 1 μM, GW583340 10 μM, tyrphostin 1 μM, GSK269962 2 μM
Method: as §2, §3

[3] = tested on: carbachol response in R2/R3 U2OS cells; assay: Pathway blockers on carbachol-mediated DMR response in R2/R3 U2OS cells; conditions: for effect on the carbachol DMR response, in words: latrunculin A 1 μM, wortmannin 200 nM, U0126 2 μM, GSK269962 2 μM
Method: as §2, §3

[4] = tested on: sucralose response (sweet taste receptor) in R2/R3 U2OS cells; assay: Pathway blockers on sucralose-mediated DMR response in R2/R3 U2OS cells; conditions: for effect on the sucralose DMR response, in words: latrunculin A 1 μM, PTx overnight, wortmannin 200 nM, U0126 2 μM
Method: as §2, §3

[5] = tested on: S1P response in R2/R3 U2OS cells; assay: Pathway blockers on S1P-mediated DMR response in R2/R3 U2OS cells; conditions: for % inhibition of the S1P DMR response: PTx overnight, U0126 2 μM, GF109203x 5 μM, GW583340 10 μM, tyrphostin 1 μM, GSK269962 2 μM, mean ± sd or average of two experiments
Method: as §2, §3

[6] = target: T1, human sweet taste receptor (hT1R2/hT1R3) coupled to Gα15 (Homo sapiens, UniProt Q7RTX0+Q8TE23); assay: FLIPR calcium mobilization assay, R2/R3 U2OS cells transduced with Gα15 baculovirus; type: cell-based; conditions: for ΔlogR FLIPR Mean: FLIPR-Gα15, operational model, logR minus sucralose logR; for Activity in FLIPR assay Emax: Gα15, top asymptote of dose-response normalized to 1 mM sucralose; for EC50: R2/R3 U2OS cells expressing Gα15
T1 construct: expressed in transfected cells
T1 sequence (Q8TE23 20-839): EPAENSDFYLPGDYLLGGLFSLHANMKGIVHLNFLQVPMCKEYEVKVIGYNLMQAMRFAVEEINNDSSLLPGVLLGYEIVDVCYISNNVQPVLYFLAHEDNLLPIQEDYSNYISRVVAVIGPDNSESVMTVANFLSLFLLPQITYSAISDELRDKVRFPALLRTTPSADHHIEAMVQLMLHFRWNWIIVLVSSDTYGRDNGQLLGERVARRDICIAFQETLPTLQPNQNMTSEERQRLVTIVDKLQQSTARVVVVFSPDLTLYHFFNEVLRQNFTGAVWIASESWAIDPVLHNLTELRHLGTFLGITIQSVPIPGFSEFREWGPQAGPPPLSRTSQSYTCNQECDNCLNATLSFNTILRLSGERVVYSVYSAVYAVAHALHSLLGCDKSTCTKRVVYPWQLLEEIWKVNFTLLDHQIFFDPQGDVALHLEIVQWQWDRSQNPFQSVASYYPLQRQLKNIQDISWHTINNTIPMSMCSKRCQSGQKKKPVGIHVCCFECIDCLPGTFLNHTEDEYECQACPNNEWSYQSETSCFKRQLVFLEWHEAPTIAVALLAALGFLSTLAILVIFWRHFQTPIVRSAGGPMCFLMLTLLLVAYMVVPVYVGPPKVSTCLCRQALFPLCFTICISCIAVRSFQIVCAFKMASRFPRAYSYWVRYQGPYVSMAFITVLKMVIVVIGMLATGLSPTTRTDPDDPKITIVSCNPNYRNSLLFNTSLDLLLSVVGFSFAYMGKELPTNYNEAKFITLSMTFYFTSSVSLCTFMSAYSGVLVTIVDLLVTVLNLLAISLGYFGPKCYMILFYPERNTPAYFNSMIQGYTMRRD
T1 sequence (Q7RTX0 21-852): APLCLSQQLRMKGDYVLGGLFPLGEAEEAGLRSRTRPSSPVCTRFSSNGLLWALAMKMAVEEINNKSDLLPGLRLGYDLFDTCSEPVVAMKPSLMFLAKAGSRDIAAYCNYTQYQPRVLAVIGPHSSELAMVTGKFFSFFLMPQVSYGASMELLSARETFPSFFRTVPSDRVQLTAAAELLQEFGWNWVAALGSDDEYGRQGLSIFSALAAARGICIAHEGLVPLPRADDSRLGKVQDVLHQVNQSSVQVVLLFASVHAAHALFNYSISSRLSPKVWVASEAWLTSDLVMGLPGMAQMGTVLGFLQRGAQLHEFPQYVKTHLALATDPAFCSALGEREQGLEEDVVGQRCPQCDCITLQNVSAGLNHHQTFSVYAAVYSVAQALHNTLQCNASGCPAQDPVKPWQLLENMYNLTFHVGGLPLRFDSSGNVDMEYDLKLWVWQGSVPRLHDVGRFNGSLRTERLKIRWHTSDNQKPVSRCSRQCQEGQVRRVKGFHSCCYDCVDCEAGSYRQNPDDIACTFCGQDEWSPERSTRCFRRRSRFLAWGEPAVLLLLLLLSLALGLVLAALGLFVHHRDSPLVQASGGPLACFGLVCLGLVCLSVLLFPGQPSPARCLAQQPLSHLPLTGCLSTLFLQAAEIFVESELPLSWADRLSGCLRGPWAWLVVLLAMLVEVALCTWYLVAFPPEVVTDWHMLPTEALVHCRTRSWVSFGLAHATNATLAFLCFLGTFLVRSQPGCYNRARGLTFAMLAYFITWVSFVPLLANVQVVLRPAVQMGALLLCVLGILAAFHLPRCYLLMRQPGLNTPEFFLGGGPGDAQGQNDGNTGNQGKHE
Method: The Gα15 coding sequence was inserted in the HindIII-NotI sites and recombinant virus was generated using the Bac-to-Bac system (Life Technologies). Virus was further amplified by propagation in Sf9 cells grown in suspension using Sf900-II media. Virus titers were determined by plaque assay on Sf9 cells.
Cells were gently mixed with the virus at a multiplicity of infection (MOI) of 5. Using a multidrop, 70 μl per well of the cell and virus mixture was dispensed in a 384-well clear bottom plate (Fisher). After 24 h of incubation in a humidified 37°C tissue culture incubator, trichostatin A was added to a final concentration of 0.3 μM and the cells were incubated for another 18–24 h at 34°C. On the day of the experiment, cells were loaded with 4 μM of the calcium indicator Fluo-4 AM (Invitrogen) in D-PBS for 1 h at room temperature. After washing the cells with D-PBS using a cell washer (BioTek) and a 30-minute rest time, the cell plate and the compound plate were transferred into the FLIPR-Tetra (Molecular Devices). […] Loading and the FLIPR assay were run as described above. When indicated, data for agonist dose-responses were normalized to data obtained with a maximum concentration of sucralose (1 mM) and then fitted and plotted using GraphPad Prism (San Diego, CA) and non-linear regression analysis.
(§1) This value, that we termed pEC50Ratio (sucralose) or pEC50R (sucralose), was calculated with EC50 values obtained in the two assay systems. This transformation also allowed determination of an average and a standard error for the pEC50R (sucralose). The two sets of data (DMR and FLIPR data) were then analyzed with an un-paired t-test (α = 0.05). To calculate relative efficacy bias between the two assays, we captured the top asymptote value from each activity-normalized dose-response curve, as provided by the curve fit, calculated an average and a standard deviation (sd) for each agonist and then analyzed the data pairs with an un-paired t-test (α = 0.05). […] The following steps were followed: 1) Using the PRISM software, we re-analyzed each ligand’s dose-response data obtained in each assay with non-linear regression and the users-defined equation “New Operational Model with TauKa ratios” and retrieved logR values from the fits. 2) Subtracted each ligand’s logR value with that of our standard, the sucralose logR value, obtained from the same data set (each ligand dose-response assay data used in this analysis was accompanied with a sucralose dose-response ran on the same day), producing the ΔlogR value for leach ligand in each assay. 3) Calculated the mean and SEM from ΔlogR replicates (from three to nine independent dose-response analysis, in the two different assays). 4) Calculated ΔΔlogR values by subtracting the averaged ligands’ ΔlogR FLIPR values with the averaged ligands’ ΔlogR DMR values.

[7] = target: T2, human sweet taste receptor (hT1R2/hT1R3) (Homo sapiens, UniProt Q7RTX0+Q8TE23); assay: DMR assay (Epic reader) on R2/R3 U2OS cells, endogenous G proteins; type: cell-based; conditions: for EC50: R2/R3 U2OS cells, peak DMR response; for ΔlogR DMR Mean: Table 2, operational model, logR minus sucralose logR; for Activity in DMR assay Emax: top asymptote of dose-response normalized to 1 mM sucralose
T2 construct: expressed in transfected cells
T2 sequence (Q8TE23 20-839): T1 sequence (Q8TE23 20-839)
T2 sequence (Q7RTX0 21-852): T1 sequence (Q7RTX0 21-852)
Method: The plates were incubated in the tissue culture hood for 20 min to allow cells to settle evenly at the bottom of the microplate and further cultured at 37°C in an atmosphere of 5% CO2 for 18–24 h. The next day, the cells were subjected to functional analysis using DMR. […] When indicated, data for agonist dose-responses were normalized to data obtained with a maximum concentration of sucralose (1 mM) and then fitted and plotted using GraphPad Prism (San Diego, CA) and non-linear regression analysis.
as §1

[8] = read-out: Activity in FLIPR assay EC50
[9] = read-out: Activity in FLIPR assay pEC50 (converted)
[10] = read-out: Activity in DMR assay EC50
[11] = read-out: Activity in DMR assay pEC50 (converted)

Compound: CN(C)CCCn1cc(C2=C(c3c[nH]c4ccccc34)C(=O)NC2=O)c2ccccc21 [GF109203x]
- % inhibition of the somatostatin DMR response ([1]; 10 μM somatostatin, PTx overnight, GF109203x 5 μM, GW583340 10 μM, tyrphostin 1 μM, mean ± sd or average of two experiments): 8%
- % inhibition of the EGF DMR response [2]: 22 ± 11%
- % inhibition of the carbachol DMR response ([3]; 100 μM carbachol, PTx overnight, GF109203x 5 μM, GW583340 10 μM, tyrphostin 1 μM, mean ± sd or average of two experiments): 67 ± 4%
- % inhibition of the sucralose DMR response ([4]; 2 mM sucralose, GF109203x 5 μM, GW583340 10 μM, tyrphostin 1 μM, mean ± sd or average of two experiments): −7 ± 10%
- % inhibition of the S1P DMR response ([5]; 1 μM S1P): 15%

Compound: CCn1c(-c2nonc2N)nc2cnc(Oc3cccc(NC(=O)c4ccc(OCCN5CCOCC5)cc4)c3)cc21 [GSK269962]
- effect on the somatostatin DMR response, in words ([1]; 10 μM somatostatin): not affected
- effect on the EGF DMR response, in words [2]: not affected
- effect on the carbachol DMR response, in words ([3]; 100 μM carbachol): not affected
- % enhancement of the sucralose DMR response ([4]; 2 mM sucralose, GSK269962 2 μM, mean ± sd, n = 3): 28 ± 11%
- % inhibition of the S1P DMR response ([5]; 1 μM S1P): 77 ± 14%

Compound: CS(=O)(=O)CCNCc1nc(-c2ccc3ncnc(Nc4ccc(OCc5cccc(F)c5)c(Cl)c4)c3c2)cs1 [GW583340]
- inhibition at 10 µM ([1]; Homo sapiens, U2OS, read-out: % inhibition of the somatostatin DMR response): -0.3%
- effect on the EGF DMR response, in words [2]: abolished
- inhibition at 10 µM ([3]; Homo sapiens, U2OS, read-out: % inhibition of the carbachol DMR response): 7.6%
- inhibition at 10 µM ([4]; Homo sapiens, U2OS, read-out: % inhibition of the sucralose DMR response): 3.1%
- inhibition at 10 µM ([5]; Homo sapiens, U2OS, read-out: % inhibition of the S1P DMR response): -16%

Compound: C/C1=C/C(=O)O[C@@H]2C[C@@H](CC[C@H](C)/C=C\C=C\CC1)O[C@@](O)([C@@H]1CSC(=O)N1)C2 [Latrunculin A]
- effect on the somatostatin DMR response, in words ([1]; 10 μM somatostatin): disrupted
- effect on the EGF DMR response, in words [2]: disrupted
- effect on the carbachol DMR response, in words ([3]; 100 μM carbachol): disrupted
- effect on the sucralose DMR response, in words ([4]; 2 mM sucralose): disrupted
- effect on the S1P DMR response, in words ([5]; 1 μM S1P, latrunculin A 1 μM): disrupted

Compound: COC(=O)[C@H](Cc1ccccc1)NC(=O)[C@H](CC(=O)O)NC(=O)Nc1ccc(C#N)cc1 [Superaspartame]
- ΔlogR FLIPR Mean [6]: 1.17
- Activity in FLIPR assay Emax [6]: 105
- EC50 [6, 8]: 4.7 µM
- EC50 [6, 9]: 4.62 µM
- ΔΔlogR Mean ([6]; ΔlogR FLIPR-Gα15 minus ΔlogR DMR): 0.13
- EC50 [7, 10]: 9.8 µM
- EC50 [7, 11]: 9.48 µM
- ΔlogR DMR Mean [7]: 1.04
- Activity in DMR assay Emax [7]: 109

Compound: N#CC(=C(/N)Sc1ccccc1N)/C(C#N)=C(/N)Sc1ccccc1N [U0126]
- effect on the somatostatin DMR response, in words ([1]; 10 μM somatostatin): no statistically significant effects
- % inhibition of the EGF DMR response [2]: 54 ± 15%
- effect on the carbachol DMR response, in words ([3]; 100 μM carbachol): no statistically significant effects
- effect on the sucralose DMR response, in words ([4]; 2 mM sucralose): no statistically significant effects
- % inhibition of the S1P DMR response ([5]; 1 μM S1P): 19 ± 26%

Compound: CC1=CC(=O)NS(=O)(=O)O1 [acesulfame K]
- ΔlogR FLIPR Mean [6]: −0.74
- Activity in FLIPR assay Emax [6]: 73****
- EC50 [6, 8]: 253 µM
- EC50 [6, 9]: 251 µM
- Bias factor ([6]; inverse log of ΔΔlogR, FLIPR-Gα15 vs DMR): 1.8
- EC50 [7, 10]: 1220 µM
- EC50 [7, 11]: 906 µM
- ΔlogR DMR Mean [7]: −0.99
- Activity in DMR assay Emax [7]: 122
